Assay: molar heat capacity at constant pressure
Settings: 101.33 kPa, Crystal 2, Vacuum adiabatic calorimetry

N#CCCNc1ccccc1 [3-anilinopropanenitrile]
Settings | molar heat capacity at constant pressure [J/K/mol]
83 K | 52.6
83.11 K | 52.8
85.94 K | 53.3
88 K | 53.8
88.94 K | 54.1
91.87 K | 55.3
93 K | 55
94.73 K | 54.7
97.54 K | 55.3
98 K | 56
100.3 K | 55.4
103 K | 57
103.01 K | 56
105.67 K | 57.9
108 K | 57.6
108.29 K | 58.1
110.86 K | 58.6
113 K | 58.4
113.39 K | 59.7
115.91 K | 59.1
118 K | 59.1
118.39 K | 59.9
120.86 K | 59.7
123 K | 60.1
123.29 K | 60.2
125.69 K | 61.3
128 K | 61.3
128.08 K | 61.2
130.44 K | 61.4
132.78 K | 62
133 K | 62.6
135.1 K | 62.8
137.39 K | 63.4
138 K | 64.3
139.66 K | 64.3
141.91 K | 65
143 K | 66
144.13 K | 67.1
146.35 K | 66.9
148 K | 67.8
148.54 K | 67.5
150.73 K | 68.2
152.89 K | 68.6
153 K | 69.6
155.03 K | 69.6
157.16 K | 70.4
158 K | 71.3
159.28 K | 71.7
161.38 K | 72.6
163 K | 73.1
163.47 K | 73
165.54 K | 73.7
167.59 K | 74.3
168 K | 74.7
169.63 K | 75.2
171.66 K | 76
173 K | 76.2
173.68 K | 77
175.7 K | 77.8
177.67 K | 78.2
178 K | 77.8
179.65 K | 78.9
181.61 K | 79.9
183 K | 79.5
183.57 K | 81.2
185.51 K | 81.6
187.45 K | 82.1
188 K | 81.5
189.37 K | 83
191.29 K | 84
193 K | 84
193.19 K | 84
195.09 K | 84.8
196.97 K | 84.8
198 K | 86.5
198.84 K | 86.5
200.68 K | 88.1
202.52 K | 88.1
203 K | 89.8
204.36 K | 90.6
206.19 K | 92.3
208 K | 94
208.02 K | 93.1
209.84 K | 94.8
211.66 K | 96.4
213 K | 98.9
213.46 K | 97.3
215.26 K | 98.9
217.05 K | 101
218 K | 105
218.84 K | 102
220.61 K | 105
222.38 K | 107
223 K | 111
224.14 K | 111
225.88 K | 112
227.6 K | 116
228 K | 118
229.29 K | 121
230.95 K | 124
232.59 K | 126
233 K | 125
234.22 K | 129
235.85 K | 131
237.47 K | 132
238 K | 132
239.08 K | 136
240.67 K | 140
242.24 K | 141
243 K | 139
243.78 K | 144
245.31 K | 146
246.85 K | 146
248 K | 146
248.39 K | 147
249.91 K | 148
251.45 K | 149
252.99 K | 150
253 K | 151
254.53 K | 150
256.06 K | 150
257.59 K | 151
258 K | 156
259.11 K | 153
260.62 K | 155
